US20250057910A1, “Application of Polypeptide in Preparation of Product for Preventing or Treating Skin Injury Diseases” (Sichuan Gooddoctor Panxi Pharmaceutical Co., Ltd., priority 2021, published 2025)
Ends that are not written are not given here.

Assays:
[1] = system: db/db mice; assay: Healing of skin ulcers (full-thickness back wound) in db/db mice; type: in vivo, mouse; settings: for Wound healing rate: db/db mice, topical, polypeptide 30 μg/cm^2 qd, GeneTime 40 IU/cm^2 qd, Kangfuxin Ye 40 μL/mouse Bid, Mean ± SD, n = 10
Description: Experimental animals: Diabetic model mice (db/db male mice), normal mice (m/m male mice), SPF grade, 8-10 weeks of age, weighting 40-50 g, from Changzhou Cavens Experimental Animal Co., Ltd., with the experimental animal production license number of SCXK (Su) 2016-0010, and the experimental animal use license number of SYXK (Shanghai) 2020-0038.
Experimental method: After the blood glucose of the db/db mice reached the standard (blood glucose after fasting for 4 h>16.7 mmol/L), the mice were randomly divided into 5 groups with 10 mice in each group, namely, normal control group, model control group, Kangfuxin Ye group (40 μL per mouse), GeneTime group (40 IU/cm^2), the subject polypeptide group (30 μg/cm^2). After the mice were anesthetized with isoflurane inhalation, a circular wound with a diameter of about 12 mm was cut on the back of the mice with a cutter from the full layers of the skin to reach the fascia layer. The wound was photographed and the wound area was recorded as the baseline value (the wound was recorded as Day0). From the next day (Day 1), the animals in each group were administered as required, and all the skin wounds were applied externally. Both the normal control group and the model control group were given 40 μL of normal saline, and the GeneTime group (40 IU/cm^2) was given Recombinant human epidermal growth factor topical solution diluted in 40 μL of normal saline (Shenzhen Watsin Genetech Ltd.), and the subject polypeptide group (30 μg/cm^2) was given the corresponding concentration of the polypeptide prepared by using 40 μL normal saline, once a day; the Kangfuxin Ye group was given 40 μL of Kangfuxin Ye (SICHUAN GOODDOCTOR PANXI PHARMACEUTICAL CO., LTD.), twice a day. Administration was continued every day until the wound was basically healed. The skin wounds were measured and photographed twice a week, the areas of the wounds were calculated with the Image-J software, and the healing of the wounds in each group of animals was observed.

[2] = system: SD rats; assay: Healing of acute mechanical skin injuries in rats; type: in vivo, rat; settings: for Wound healing rate: rats, acute mechanical injury, topical once a day, polypeptide 8 μg/cm^2, GeneTime 40 IU/cm^2, Mean ± SD, n = 6
Description: Experimental animals: SD male rats, SPF grade, 6 weeks old, weighing 180-220 g, from Beijing Vital River Laboratory Animal Technology Co., Ltd.; animal license number: SCXK (Beijing) 2016-0006; and certification number: NO.110011210104746538.
Experimental method: SPF grade SD rats were housed in clean and sterilized cages, and were given water and feeds and padding replacement at regular intervals every day. The cultivation was kept at a temperature of 20-26° C. with a humidity of 40%-70%. The rats were kept for one week to adapt to the environment. According to the random grouping method, the animals were divided into 3 groups: model control group (normal saline), GeneTime group (40 IU/cm^2, recombinant human epidermal growth factor topical solution, from Shenzhen Watsin Genetech Ltd.), and subject polypeptide group (8 μg/cm^2), with 6 animals in each group. After the rats were successfully anesthetized by intraperitoneal injection of 3% pentobarbital sodium, the hair at 1 cm from the expected wound edge was cut off, the expected wound area was first disinfected with iodophor, then locally disinfected with 75% alcohol, and a round full layer of skin wound with a diameter of 1.5 cm was made at the middle of the ear line down to 4 cm below the back, near the cervical side, with the spine as the middle line, as deep as the muscular layer. The same sized rubber ring was used to fix the surrounding skin to form an animal model of acute mechanical injury. After modeling, the rats' wounds were exposed to the environment and fed in individual cages. Upon changing dressings, debridement was first performed with iodophor, and then the wound was washed with a sterile normal saline and wiped to dryness. Rats in each group were given 40 μL of corresponding drug solution by locally applying to the wound once a day periodically. On Days 0, 3, 7, 10 and 14 of administration, the wounds of each group of rats were photographed, the areas of the wounds were calculated with image analysis software (Image J), and the wound healing rates were calculated according to the formula.

[3] = system: Transgenic zebrafish with vascular green fluorescence; assay: Angiogenesis in zebrafish with simvastatin-induced microvessel deficiency; type: in vivo; settings: intravenous injection 12.5, 25.0 and 50.0 mg/mL, 10 nL, 2 days, vs model control
Description: Experimental animals: Transgenic zebrafish with vascular green fluorescence, raised in water for culturing fish at 28° C. (water quality: 200 mg of instant dissolving sea salt being added to every 1 L of water made by reverse osmosis, with a conductivity of 450-550 μS/cm, a pH of 6.5-8.5 and a hardness of 50-100 mg/L CaCO3), at the age of 1 day post fertilization (1 dpf). The animals were provided by the fish breeding center of Hangzhou Hunter Biotechnology Co., Ltd. with the experimental animal use license number of SYXK (Zhejiang) 2012-0171, and the breeding management complied with the requirements of international AAALAC certification (certification number: 001458).
Experimental method: 1 dpf transgenic zebrafish with vascular green fluorescence were randomly selected and placed in a 6-well plate, with 30 fish per well (per experimental group). […] Treatment was performed at 28° C. for 2 days, 10 zebrafish were randomly selected in each experimental group and placed under a fluorescence microscope to take photos, the data were analyzed and collected using NIS-Elements D 3.20 advanced image processing software, the subintestinal vascular area and the number of subintestinal vascular branches were analyzed, and the statistical analysis results of these indexes were used to evaluate the efficacy of the samples of promoting angiogenesis.

Sequence: PAAEPVPL [polypeptide]
- Wound healing rate ([1]; Day 0 (baseline)): 0.00 ± 0.00%
- Wound healing rate ([1]; Day 3): −4.66 ± 17.55%
- Wound healing rate ([1]; Day 7): 13.06 ± 17.65%
- Wound healing rate ([1]; Day 10): 40.91 ± 16.33%
- Wound healing rate ([1]; Day 14): 89.44 ± 8.99 %
- Skin wound healing in diabetic mice (statement in words) ([1]; day 14, 30 μg/cm^2 qd, vs model control): significantly promote skin wound healing
- Wound healing rate ([2]; Day 0 (baseline)): 0.00 ± 0.00%
- Wound healing rate ([2]; Day 3): −23.77 ± 6.16%
- Wound healing rate ([2]; Day 7): −10.78 ± 7.90%
- Wound healing rate ([2]; Day 10): 18.90 ± 17.63%
- Wound healing after mechanical skin injury in rats (statement in words) ([2]; Day 14, 8 μg/cm^2, vs model control): significant promotion of wound healing
- Wound healing rate ([2]; Day 14): 88.42 ± 4.57 %
- Subintestinal vascular area (area of regenerated blood vessels) ([3]; FIG. 6): significantly promote the increase of the subintestinal vascular area
- Number of subintestinal vascular branches ([3]; FIG. 7): the increase of the number of subintestinal vascular branches
